Laboratory results from patent US20260347380A1, “MODULATORS OF CD1 PROTEIN BINDING TO T CELL RECEPTORS” (The Brigham and Women's Hospital, Inc., priority 2022, published 2026).
Entries after “also recorded” stand apart in the source; their conditions may differ. Read-outs that look alike come from different tables or passages of the source.

Tests used:
[1] = molecular target: CD1a (Homo sapiens, UniProt P06126); test: structure of CD1a-lipid complexes (FIG. 3, FIG. 4; co-crystallization); conditions: for binding mode to CD1a and effect on approach of T cell receptors: sphingomyelins, FIG. 3
Sequence of CD1a (P06126 17-327): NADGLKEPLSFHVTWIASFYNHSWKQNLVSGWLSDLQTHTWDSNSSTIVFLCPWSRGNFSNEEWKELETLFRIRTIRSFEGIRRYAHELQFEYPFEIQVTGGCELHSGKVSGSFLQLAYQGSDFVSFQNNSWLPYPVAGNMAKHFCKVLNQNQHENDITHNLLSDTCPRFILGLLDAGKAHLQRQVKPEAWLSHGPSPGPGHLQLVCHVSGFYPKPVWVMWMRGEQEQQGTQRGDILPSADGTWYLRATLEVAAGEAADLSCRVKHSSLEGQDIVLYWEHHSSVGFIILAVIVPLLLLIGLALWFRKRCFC
Sequence of CD1a (P61769 21-119 partner): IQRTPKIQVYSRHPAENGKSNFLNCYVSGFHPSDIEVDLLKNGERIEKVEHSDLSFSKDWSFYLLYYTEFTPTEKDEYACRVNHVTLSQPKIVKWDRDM
Text: Sulfatide sits similarly within CD1a as compared to other lipids, but the sulfatide headgroup alters the protein surface of CD1a and protrudes to the outer surface of CD1a where it can block T cell receptors.
Sulfatides (compounds S1-S10) have the same kinds of CD1a binding lipid tails as the synthetic sphingomyelins, but carry a differing headgroup comprised of sulfate and carbohydrate rather than phosphocholine. […] However, the head group of sulfatide has two proposed mechanisms for blocking TCR contact. […] However, the sulfatide moiety also disrupts a triad of residues on the outer surface of CD1a, which changes the intrinsic conformation of CD1a at the site at which the TCR can bind. These structural data predict that sulfatides could be particularly broad and efficacious blockers of T cell response.

[2] = system: CD1a-T cell receptor; conditions: CD1a tetramer binding in vitro, J. Exp. Med. 2021, cited from earlier work
[3] = molecular target: CD1a protein binding to RCS36 T cells (Homo sapiens, UniProt P06126); test: CD1a tetramer staining of human CD1a autoreactive T cells (block of CD1a protein binding to T cells), flow cytometry, FIG. 5; conditions: in vitro, human CD1a tetramers
Sequence of CD1a protein binding to RCS36 T cells (P06126 17-327): as the sequence (P06126 17-327) above
Sequence of CD1a protein binding to RCS36 T cells (P61769 21-119 partner): as the sequence (P61769 21-119 partner) above
Method: Exemplified sphingomyelins block CD1a protein binding to RCS36 T cells. Fluorescent human CD1a tetramers were treated with media (mock) or a sphingomyelin variant synthesized with the indicated fatty chain and tested for staining of human CD1a autoreactive T cells using flow cytometry. In all cases the fatty acyl group is conjugated to a C18:1 sphingosine unit. Thus, the C28:1 fatty acyl group and the C18:1 sphingosine group constitute C46:2 sphingomyelin (compound 10).
Generally, naturally occurring cellular sphingomyelins within mammalian cells occur as mixtures, and they are most commonly C34-C36 but can range up to C42 in length.
The degree of inhibition for CD1a protein binding to T cells expressing receptors that normally bind to CD1a was tested for the exemplified compounds 1-10 (see FIG. 5). Increased chain length contributed to blockade in all cases, and the non-natural positioning of the second unsaturation in the fatty acyl unit affected blockade. More blockade was seen when the unsaturation was generated in positions more distal to the head group located at positions 15-17 (Δ15, Δ17). […] Accordingly, additional SM blockers include those with increased length of alkyl chains beyond C46, where the unsaturation is moved to more […] positions in the fatty acyl chain and the number of unsaturations in the fatty acid chain is increased. […]

[4] = system: human CD1a transgenic mouse ear skin; test: imiquimod (Aldara)-induced psoriasiform skin inflammation in CD1a transgenic mice: ear swelling and skin images; assay type: in vivo; conditions: for inflammatory lesions / visible skin inflammation: images day 7, topical 20 μg in ethanol
Method: (§1) Sphingomyelin species C34:1, C42:2 or C46:2 (20 μg/20 μl ethanol), or vehicle alone (20 μl ethanol) were applied topically to WT or CD1a transgenic mouse ear skin at 48 hour intervals before and during application of Aldara on days 0-5 (20 mg 5% imiquimod cream).
Daily measurement of ear swelling induced by imiquimod treatment of wild-type (WT) and CD1a transgenic mice (CD1a) treated topically with 20 μg sphingomyelin (SM34:1, SM42:2 or SM46:2) dissolved in ethanol, or ethanol alone control, as in FIG. 6. (N=2-3, 2-way-ANOVA with Dunnett's test, *, P<0.05; ****, P<0.0001 indicates significance on comparison to “CD1a:EtOH” at day 7, mean±SD).
Representative images of imiquimod-treated wild-type (WT) and CD1a transgenic mouse ear skin (CD1a) treated topically with 20 μg sphingomyelin (SM34:1, SM42:2 or SM46:2) dissolved in ethanol, or ethanol alone control, as in FIG. 6, images taken on day 7. Steroid is mometasone cream.
CD1a is normally expressed on Langerhans cells in the epidermal layer of human skin. […] The lipids of this disclosure block CD1a binding to several T cell clones in vitro and also more broadly block the response of larger populations of polyclonal T cells that recognize CD1a in vivo, leading to decreased inflammation in the skin.
Synthetic long (C46:2 SMΔ17, compound 10), intermediate (C42:2Δ15 SM) and short chain (C34:1 SM) sphingomyelins were compared for inflammatory response. Unlike natural preparations that contain mixtures of short and long chain lipids, these experiments used pure synthetic lipids to titrate CD1a binding and inhibition of immune response. The functional requirements for the delivery vehicle are that it must: 1) dissolve amphipathic lipids, 2) be safe, immunologically unreactive, and non-toxic to skin and 3) create a lipid film that can subsequently penetrate to the epidermal layers, where CD1a is normally located in human skin and in the skin of CD1a transgenic mice. In this experiment, ethanol was chosen which is a chemically simple, safe and effective vehicle; however, other vehicles can also be used.
A widely used model of psoriasiform and dermatitic inflammation induced by Aldara cream, whose active ingredient is a toll-like receptor 7 agonist (imiquimod), was used in this example. Experiments were carried out in which lipid antagonists were applied to the skin of human CD1a transgenic mice in an ethanol carrier, which dried rapidly, leaving a lipid film on the skin. A significant reduction in ear swelling was observed, as a global measure of inflammation and psoriasiform and dermatitic disease when long chain sphingomyelins were applied before (data not shown) or simultaneously with Aldara treatment (FIGS. 7-11).

[5] = system: Skin T cell and draining lymph node T cell; test: flow cytometry of ear skin and draining lymph node of imiquimod-treated mice (FIG. 9A); assay type: in vivo, mouse
Method: as §1
Flow cytometry analysis of ear skin of imiquimod-treated wild-type (WT) and CD1a transgenic mice (CD1a) treated topically with 20 μg sphingomyelin (SM34:1, SM42:2 or SM46:2) dissolved in ethanol, or ethanol alone control, as in FIG. 6. Skin T cell and draining lymph node T cell, frequency was determined. And lymph node CD4 and CD8 T cells assessed for cell surface CD69 expression, which is an indication of T cell activation. Skin and draining LN eosinophil and neutrophil frequency was determined. (N=2-3, 1-way-ANOVA with Dunnett's test, *, P<0.05; **, P<0.01; ***, P<0.001; ****, P<0.0001, mean±SD).

[6] = system: skin cytokines; test: skin cytokine levels of imiquimod-treated mice, cytometric bead array (FIG. 9B); assay type: in vivo, mouse; conditions: day 7
Method: as §1
(§2) Skin cytokine levels were assessed on day 7 of imiquimod-treated wild-type (WT) and CD1a transgenic mice (CD1a) treated topically with 20 μg sphingomyelin (SM34:1, SM42:2 or SM46:2) dissolved in ethanol, or ethanol alone control, as in FIG. 6, as measured by cytometric bead array. (N=2-3, 1-way-ANOVA with Dunnett's test, *, P<0.05; **, P<0.01; ***, P<0.001; ****, P<0.0001, mean±SD).

[7] = system: plasma cytokines; test: plasma cytokine levels of imiquimod-treated mice, cytometric bead array (FIG. 10); assay type: in vivo, mouse
Method: as §1
as §2, with “Plasma” for “Skin”, “of the blood” for “were assessed on day 7”, “P<0.01,” for “P<0.01; ***, P<0.001; ****, P<0.0001,”

[8] = system: ears of hCD1a and WT mice; test: MC903-induced type 2 skin inflammation and itch in hCD1a mice (FIG. 11); assay type: in vivo, mouse
Method: FIG. 11 show the impact of sphingomyelin application on MC903 type 2 inflammation and clinical itch. The ears of hCD1a and WT mice were topically treated with 1 nmol MC903/EtOH on days 0, 2 and 5. 20 μg/20 μl of SM 46:2, SM 42:2, SM 34:1 and vehicle were applied on the ear tissue on days-2, 0, 2 and 4. (A) Ear thickness, and (B) itching frequency were evaluated at endpoint of day 6. Each data plot represents an individual ear. Plots show mean±SEM. Statistics were calculated using one-way ANOVA with Tukey post-test. […], **** P<0.001, NS=nonsignificant.
In order to investigate whether SM had efficacy in a different inflammatory skin model, we utilized the MC903-induced model of type 2 cytokine inflammation which has features of dermatitis in humans and prominently causes itch, a major treatable skin symptom. The MC903-induced type 2 inflammation is amplified in the presence of hCD1a (Hardman et al Nat Comms 2022). […] These mice normally express CD1d and then were engineered to express CD1a. […] As well as having potential therapeutic applications in diseases involving type 2 inflammation in humans, the data support utility in treating broader diseases where pruritus and itch are symptoms. CD1a has not been previously linked with pruritus and so this represents a new area of biology and opens new areas for therapeutic application.

[9] = MC903, hCD1a mice, day 6, 20 μg topical

In the case of sulfatide, the “complex with CD1a” value ([1]; sulfatide, co-crystallized, FIG. 4) is reported as “CD1a was co-crystallized with sulfatide; also recorded: forms complex with CD1a”.
For `CCCCCCCC/C=C\CCCCCCCCCCCCCC(=O)N[C@@H](COP(=O)([O-])OCC[N+](C)(C)C)[C@H](O)/C=C/CCCCCCCCCCCCC` [42:2 SM], the “binding mode to CD1a and effect on approach of T cell receptors” value [1] is given as “binds CD1a with its phosphocholine headgroup protruding, which blocks approach of T cell receptors”, the “CD1a-T cell receptor binding” value [2] is given as “blocked CD1a-T cell receptor binding” and the “CD1a-T cell receptor binding” value ([2]; listed as C42:2 compound) is given as “blocked better than the singly unsaturated C42:1 compound”.
In the case of `CCCCCCCCCC/C=C\CCCCCCCCCCCCCC(=O)N[C@@H](COP(=O)([O-])OCC[N+](C)(C)C)[C@H](O)/C=C/CCCCCCCCCCCCC` [Compound 8, 44:2 SM d18:1/26:1 (15Z)], the “inhibition of CD1a protein binding to T cells” value [3] is reported as “somewhat improved blocking of C44Δ15 SM as compared to C44Δ17 SM”.
For `CCCCCCCC/C=C\CCCCCCCC(=O)N[C@@H](COP(=O)([O-])OCC[N+](C)(C)C)[C@H](O)/C=C/CCCCCCCCCCCCC` [36:2 SM], the “binding mode to CD1a and effect on approach of T cell receptors” value [1] is given as “binds by tucking its phosphocholine group largely inside CD1a so T cell receptors can approach CD1a and are not blocked” and the “CD1a-T cell receptor binding” value [2] is given as “did not block binding”.
For `CCCCCCCCCC/C=C\CCCCCCCCCCCCCCCC(=O)N[C@@H](COP(=O)([O-])OCC[N+](C)(C)C)[C@H](O)/C=C/CCCCCCCCCCCCC` [Compound 10, 46:2 SM d18:1/28:1 (17Z)], the “inhibition of CD1a protein binding to T cells” value [3] was “strongest blockade; also recorded: strongly blocked CD1a binding to human T cell receptors in vitro”, the “ear swelling / ear thickening” value ([4]; imiquimod, CD1a transgenic mice, topical 20 μg in ethanol) was “reduced skin swelling; also recorded: most significantly inhibited” and the “inflammatory lesions / visible skin inflammation” value ([4]; imiquimod) was “most significantly inhibited”. For the same compound, the “inflammatory lesions / visible skin inflammation” value ([4]; imiquimod, listed as C46:2) was “significantly reduced skin inflammation”, the “inflammatory lesions / visible skin inflammation” value ([4]; imiquimod, listed as C46:2 SM) was “Reduced inflammatory lesions” and the protection from disease ([4]; in vivo mouse model, ethanol application) was “protection from disease”. The cellular inflammation ([5]; CD1a transgenic mice, topical in ethanol) was “reduced skin swelling and cellular inflammation in vivo”, the “CD69 (surface marker of T cell activation)” value ([5]; lymph node CD4 and CD8 T cells) was “significant decreases” and the “skin IFN-γ” value [6] was “significant decreases”. The “skin IL1α” value [6] was “significant decreases”, the “skin IL17α” value [6] was “significant decreases” and the “skin IL-1β” value [6] was “significant decreases”. For the same compound, the “skin IL-6” value [6] was “significant decreases”, the “skin IL-17f” value [6] was “significant decreases” and the “skin IL-22” value [6] was “significant decreases”. For the same compound, the “skin TNFα” value [6] was “significant decreases”, the “plasma IFNβ” value [7] was “significantly reduced” and the “plasma IL17α” value [7] was “significantly reduced”. For the same compound, the “plasma IL-4” value [7] was “significantly reduced”, the “ear thickness vs wild-type mice treated with MC903” value ([8]; MC903, day 6, 20 μg topical) was “significantly reduced” and the “pruritus vs wild-type mice treated with MC903” value ([8]; MC903, day 6, 20 μg topical) was “significantly reduced”. For the same compound, the “ear thickness vs vehicle control” value [8, 9] was “significantly reduced” and the “itching/pruritus scores vs vehicle control” value [8, 9] was “significantly reduced”.
